Experiments:
[1] = biological target: T1, Indoleamine 2,3-dioxygenase 1 (Homo sapiens, UniProt P14902); experiment: Inhibition of recombinant human IDO1 assessed as conversion of […] incubated for 1 hr by fluorescence analysis
[2] = biological target: T1, Indoleamine 2,3-dioxygenase 1; experiment: Inhibition of IDO1 in IFNgamma-stimulated human HeLa cells incubated for 24 hrs; type: cell-based
[3] = Toxicity in dog administered as bid for 28 days; type: organism-based, Canis lupus familiaris; conditions: in vivo
[4] = Toxicity in rat administered as bid for 28 days; type: organism-based; conditions: in vivo
Mus musculus [5] = experiment: Reduction of kynurenine in LPS-stimulated mouse plasma at 50 mg/kg, po by LC/MS/MS analysis; type: functional; parameters: scale not given: the % may be the effect or the level left
Mus musculus [6] = experiment: Reduction of kynurenine in LPS-stimulated mouse tissue at 50 mg/kg, po by LC/MS/MS analysis; type: functional; parameters: scale not given: the % may be the effect or the level left

T1 sequence (P14902 whole entry): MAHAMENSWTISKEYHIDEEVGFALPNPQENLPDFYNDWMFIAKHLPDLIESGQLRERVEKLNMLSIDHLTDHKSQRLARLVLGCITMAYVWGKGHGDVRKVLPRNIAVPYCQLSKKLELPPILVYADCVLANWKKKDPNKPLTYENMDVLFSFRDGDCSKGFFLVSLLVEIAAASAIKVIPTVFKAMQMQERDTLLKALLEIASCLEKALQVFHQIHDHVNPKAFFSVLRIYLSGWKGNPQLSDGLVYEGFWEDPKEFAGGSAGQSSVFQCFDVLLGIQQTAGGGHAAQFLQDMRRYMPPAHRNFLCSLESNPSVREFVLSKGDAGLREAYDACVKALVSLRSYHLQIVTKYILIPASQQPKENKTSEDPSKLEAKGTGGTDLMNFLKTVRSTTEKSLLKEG

Structure (SMILES) | IC50 [1] | EC50 [2] | also measured
OC(CC1c2ccccc2-c2cncn21)C1CCCCC1 (mixture of isomers) |  |  | NOAEL at 672 h [3]: 80 mg/kg/day; NOAEL at 672 h [4]: 80 mg/kg/day; Activity (Mus musculus [5]): 50%; Activity (Mus musculus [6]): 50%
OC(Cn1c2ccccc2c2cccnc21)C1CCCCC1 (stereo not drawn) | > 10 µM |  | 
OC(Cn1c2ccccc2c2ccncc21)C1CCCCC1 (stereo not drawn) | > 10 µM |  | 

Further lines, with some results ahead:

IC50 [1] | EC50 [2] | Structure (SMILES) | also measured
> 10 µM | > 10 µM | OC(CC1c2ccccc2-c2cnnn21)C1CCCCC1 (stereo not drawn) | 
> 10 µM | > 10 µM | Cc1ncc2n1C(CC(O)C1CCCCC1)c1ccccc1-2 (stereo not drawn) | 
> 10 µM |  | O=C(Cn1c2ccccc2c2cccnc21)C1CCCCC1 | 
1.14 µM | > 10 µM | OC(CC1Nc2ccccc2-c2cncn21)C1CCCCC1 (stereo not drawn) | 
